“Also recorded” adds a separate entry of the source. Where no end group is shown, it is not given here.
What was measured:
isolated mitochondria = assay: Mitochondrial swelling followed spectrophotometrically at 520 nm (FIG. 3A); type: biochemical, rats; details: 0.5 mM, positive control
Description: Consistent with these observations, molecules such as Bcl-2 which inhibit apoptosis inhibit mitochondrial swelling. Briefly, mitochondria were prepared as previously described (Ellerby et al. J. Neurosci. 17:6165-6178 (1997)) except for the following modifications. The rats were sacrificed by CO2 inhalation without fasting and the mitochondria were isolated in MIB buffer (210 mM mannitol, 70 mM sucrose, 0.05% BSA, 1 mM EGTA, 5 mM Hepes-NaOH, pH 7.4). The mitochondrial pellet samples resuspended in MCB buffer (300 mM mannitol, 10 mM KH2 PO4, 0.1% BSA, pH 7.2) and applied to a discontinuous sucrose gradient (1.6 M sucrose, 10 mM KH2 PO4, pH 7.5; 1.2 M sucrose, 10 mM KH2 PO4, pH 7.5) were centrifuged at 48,500 g for 1 hour. […] The mitochondrial pellets were collected, resuspended in MSB, and stored on ice. After the addition of 50 μM of the peptide, mitochondrial swelling was followed spectrophotometrically at 520 nm (Petronilli et al. J. Biol. Chem. 269:16638-16642 (1994)) in CFS (220 mM mannitol, 68 mM sucrose, 2 mM NaCl, 5 mM KH2 PO4, 2 mM MgCl2, 5 mM succinate, 10 mM Hepes-NaOH, 2 mM ATP, 50 μg/ml creatine kinase, 10 mM phosphocreatine, 0.75 μg/ml rotenone, pH 7.4).

293T cells = assay: Apoptosis in 293T cells expressing FKBP/p75^NTR chimeras with or without FK1012; type: cell-based; details: 2 μM FK1012, 35 μM tamoxifen
Source text: The FKBP12-tagging vector MF1E/MF3E, which included an amino-terminal myristylation site for membrane insertion (Spencer et al. Science 262:1019-1024 (1993)), contains one and three repeats of the FK-binding protein (FKBP) sequence. The FKBP12 vector served as a PCR template and was amplified using primers flanked by Nhe I (5' primer) or Nde I (3' primer) sites to produce DNA fragments consisting of one or three FK-binding domains (FKBP). The resulting PCR products contained either one or three FKBP sequence repeats and were subcloned into pcDNA3.1. A DNA fragment encoding an intracytoplasmic form of p75^NTR was removed from the pUC18-p75 plasmid by digestion with Nde I and Bam HI, and the DNA fragment was ligated to the carboxy-terminus of the FKBP sequences within the pcDNA3.1-FKBP construct. The resulting two expression vectors encoded FKBP/p75^NTR chimeras comprising one or three FKBP repeats at the amino-terminus fused to an intracytoplasmic form of p75^NTR at the carboxy-terminus.
The stimulation of cellular apoptosis by Fas and TNFR I is induced by ligand binding which triggers multimerization of Fas and TNFR I. The assembly of such a death-inducing signaling complex contributes to cellular apoptosis by activating caspase-8. The effect that dimerization or multimerization has on the ability of p75^NTR to stimulate apoptosis was analyzed. […]

PC3 = assay: Cell viability after peptide treatment, PC3; type: cell-based, human; details: 50 μM stated for tat-GG-SATLDALLAALRRI; 18 hours
Description: (§1) Briefly, NTera 2 human neuronal cells, R2 neural cells, CSM14.1 neural cells, LNCaP cells, SH-SY5Y human neuroblastoma cells and PC12 NRA5 cells were grown in DMEM/F12 (50/50) supplemented with 5% fetal bovine serum and seeded onto 96-well plates. […] The purified peptides were dissolved in tissue culture grade water and diluted to 50 μM and 100 μM in serum free medium and directly added to the cells in 96-well plates. The cells were incubated at 37° C. for 18 hours and 20 μM propidium iodide was added. Cell viability was determined using a fluorimeter as previously described (Kane et al. J. Neurosci. Res. 40:269-275 (1995)).

[1] = test system: NTera 2 human neuronal cells; assay: Cell viability after peptide treatment, NTera 2; type: cell-based; details: 50 μM stated for tat-GG-SATLDALLAALRRI; 18 hours
Description: as §1

LNCaP cells = assay: Cell viability after peptide treatment, LNCaP; type: cell-based; details: 50 μM stated for tat-GG-SATLDALLAALRRI; 18 hours
Description: as §1

PC12 NRA5 cells = details: 100 μM peptide; 18 hours
Description: Briefly, NTera 2 human neuronal cells, R2 neural cells, CSM14.1 neural cells, LNCaP cells, SH-SY5Y human neuroblastoma cells and PC12 NRA5 cells were grown in DMEM/F12 (50/50) supplemented with 5% fetal bovine serum and seeded onto 96-well plates. The peptides were synthesized and HPLC purified (Coast Scientific, San Diego, Calif.). The purified peptides were dissolved in tissue culture grade water and diluted to 50 μM and 100 μM in serum free medium and directly added to the cells in 96-well plates. The cells were incubated at 37° C. for 18 hours and 20 μM propidium iodide was added. Cell viability was determined using a fluorimeter as previously described (Kane et al. J. Neurosci. Res. 40:269-275 (1995)).

COS-7 = assay: Cell viability after peptide treatment, COS-7; type: cell-based; details: 50 μM stated for tat-GG-SATLDALLAALRRI; 18 hours
Description: as §1

[2] = test system: NTera 2, R2, CSM14.1, LNCaP, SH-SY5Y and PC12 NRA5 cells; assay: Induction of cell death by peptides added to cells (propidium iodide, Table 1); type: cell-based; details: peptide 50 μM and 100 μM in serum free medium, 18 hours
Description: A region of a dependence polypeptide that mediates apoptosis in cells was analyzed for its ability to stimulate apoptosis in cells. […] The effect of replacing leucine with lysine at position 7 (purple, […]; SEQ ID NO:41; tat-purple, tat-GG-[…]; SEQ ID NO:42), removing the carboxy-terminal "RRI" sequence (gray, SATLDALLAAL; SEQ ID NO:43; tat-gray, tat-GG--SATLDALLAAL; SEQ ID NO:44) or amino-terminal "SATLD" sequence (green; […]; SEQ ID NO:45) on the proapoptotic activity of a dependence peptide was examined. […] The 12 amino acid HIV tat protein fragment ([…]; SEQ ID NO:52; hereinafter termed "tat"), which facilitates cellular entry, also was included on the amino terminus of some of the peptides tested. […] For convenience, the hyphen in the above amino acid sequences is a nomenclature intended to set apart the proapoptotic dependence peptides and variants thereof or control peptides from other amino acid residues contained in the peptide.

[3] = test system: SH-SY5Y human neuroblastoma cells; assay: Cell death by tat-linked peptides and mutated variants in SH-SY5Y cells (FIG. 2); type: cell-based; details: relative to unmutated tat-GG-SATLDALLAALRRI
Description: To further analyze the effect of particular point mutations on apoptosis, additional studies employing dependence peptides and mutated variants linked to tat were performed in SH-SY5Y cells. The results shown in FIG. 2 are of studies in which quadruplicate samples were averaged, and the studies were repeated 2 to 10 times for each peptide. Each column represents the percentage cell death and the bars indicate the standard error. The amount of peptide added to the cells is indicated above each column.

Molecule	cell viability, PC3 (PC3) [%]	cell viability, NTera 2 [1] [%]	cell viability, LNCaP (LNCaP cells) [%]	cell viability, COS-7 (COS-7) [%]	other results
[Ca+2].[Cl-].[Cl-] [calcium chloride]	–	–	–	–	mitochondrial swelling (decreased absorbance at 520 nm) (isolated mitochondria): rapid swelling
FK1012	–	–	–	–	apoptosis of cells containing single copy or triple copy FKBP/p75^NTR protein chimera (293T cells): apoptosis was blocked
GRKKRRQRRRPPGGDLSLARLATARLAI [tat-yellow, reference compound]	97	–	–	–	–
GRKKRRQRRRPPGGKDRNLRRITRMVLV [tat-turquoise, reference compound]	87.9	67.6	46.7	–	cell viability, NRA 5 cells (PC12 NRA5 cells): 95.7%
GRKKRRQRRRPPGGSATLDAKLAALRRI [tat-purple]	92.8	69.3	–	97.8	–
GRKKRRQRRRPPGGSATLDALLAAL [tat-gray, tat-GG-SATLDALLAAL]	90.5	76.7	59.1	97.1	–
GRKKRRQRRRPPGGSATLDALLAALRRI [tat-blue]	4.2	1.3	0	1.5	cell viability, NRA 5 cells (PC12 NRA5 cells): 0%
INLKALAALAKKIL [MP]	–	–	–	–	Effect on apoptosis [2]: underwent apoptosis; also recorded: Apoptotic
tat-GG-SATLDALLAALOOI (GRKKRRQRRRPPGGSATLDALLAALQQI) [arginines at positions 12 and 13 replaced with glutamine]	–	–	–	–	decrease of the ability to stimulate SH-SY5Y cell death [3]: 80%
